pIC50: −log10 of the molar value.
What was measured:
PAD = experiment: Induction of PAD activity against human A549 cells; type: toxicity, cell-based
[1] = biological target: T1, Interleukin-1 receptor-associated kinase 4 (Homo sapiens, UniProt Q9NWZ3); experiment: Inhibition of IRAK4 (unknown origin)
T1 sequence (Q9NWZ3 whole entry): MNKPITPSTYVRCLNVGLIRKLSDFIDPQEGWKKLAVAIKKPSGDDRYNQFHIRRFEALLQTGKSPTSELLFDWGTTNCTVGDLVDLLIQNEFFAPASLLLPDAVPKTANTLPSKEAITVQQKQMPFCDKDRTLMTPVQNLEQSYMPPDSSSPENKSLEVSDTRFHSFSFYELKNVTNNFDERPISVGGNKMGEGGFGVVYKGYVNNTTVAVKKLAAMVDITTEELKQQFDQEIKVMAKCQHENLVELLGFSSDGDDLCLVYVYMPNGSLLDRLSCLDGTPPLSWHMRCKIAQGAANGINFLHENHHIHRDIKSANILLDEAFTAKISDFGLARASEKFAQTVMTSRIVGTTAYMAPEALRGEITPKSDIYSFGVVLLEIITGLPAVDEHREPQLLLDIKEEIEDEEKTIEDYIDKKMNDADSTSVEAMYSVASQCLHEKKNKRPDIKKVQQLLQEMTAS

THP-1 = experiment: Antiinflammatory activity against human THP-1 cells assessed as inhibition of LPS induced IL-23 production; type: functional, cell-based
[2] = Oral bioavailability in rat at 5 mg/kg; type: ADME, organism-based; conditions: in vivo
[3] = Clearance in rat at 1 mg/kg, iv; type: ADME, organism-based; conditions: in vivo
Mus musculus = experiment: Antiinflammatory activity against mouse assessed as inhibition of IL-1 beta-stimulated IL-6 expression at 75 mg/kg; type: functional
[4] = Plasma concentration in mouse at 75 mg/kg measured after 0.5 hrs; type: ADME, organism-based
[5] = Antiinflammatory activity against human dendritic cells assessed as inhibition of LPS induced IL-23 production; type: functional, cell-based; conditions: Dendritic cell

Row | SMILES | pIC50 [1] | pIC50 (THP-1) | bioavailability [2] | clearance [3] | concentration at 0.5 h [4] | pIC50 [5] | pIC50 (PAD) | inhibition in vivo at 75 mg/kg (Mus musculus)
1 | NC(=O)[C@@H]1[C@H](Nc2nc(Nc3cc(C(=O)N4CCCC4)ccc3F)nc3ccsc23)[C@H]2C=C[C@@H]1C2 | 6.15 | 4.96 | – | – | – | – | 4.85 | –
2 | NC(=O)[C@@H]1[C@H](Nc2nc(Nc3ccc(F)c(N4CCOCC4)c3)nc3ccsc23)[C@H]2C=C[C@@H]1C2 | 7.02 | 6.62 | 23% | 52 mL/min/kg | – | – | 5.60 | –
3 | NC(=O)[C@@H]1[C@H](Nc2nc(Nc3cc(F)cc(N4CCOCC4)c3)nc3ncsc23)[C@H]2C=C[C@@H]1C2 | 7.74 | 5.59 | – | – | – | – | 5.12 | –
4 | NC(=O)[C@@H]1[C@H](Nc2nc(Nc3cccc(C(=O)N4CCCC4)c3)nc3[nH]ccc23)[C@H]2C=C[C@@H]1C2 | 7.96 | 7.40 | – | 100 mL/min/kg | – | 7.30 | 6.38 | –
5 | NC(=O)[C@@H]1[C@H](Nc2nc(Nc3cccc(C(=O)N4CCC(F)C4)c3)nc3ccsc23)[C@H]2C=C[C@@H]1C2 (some centres undefined) | 7.82 | 7.05 | 3% | 82 mL/min/kg | – | 7.40 | 5.57 | –
6 | NC(=O)[C@@H]1[C@H](Nc2nc(Nc3cccc(C(=O)N4CCCC4)c3)nc3cn[nH]c23)[C@H]2C=C[C@@H]1C2 | 7.77 | 5.03 | – | – | – | – | < 4.00 | –
7 | NC(=O)[C@@H]1[C@H](Nc2nc(Nc3ccc(C(=O)N4CCOCC4)cc3)nc3ccsc23)[C@H]2C=C[C@@H]1C2 | 7.85 | 7.15 | – | – | – | 7.52 | 5.96 | –
8 | NC(=O)[C@H]1CCC[C@H]1Nc1nc(Nc2cccc(C(=O)N3CCCC3)c2)nc2ccsc12 | 7.77 | 6.59 | – | 104 mL/min/kg | – | 6.00 | < 4.00 | –
9 | CN1CCN(c2cc(F)cc(Nc3nc(N[C@H]4[C@@H](C(N)=O)[C@@H]5C=C[C@H]4C5)c4sccc4n3)c2)CC1 | 7.92 | 7.10 | 16% | 99 mL/min/kg | – | 7.00 | 5.82 | –
10 | O=C(c1cccc(Nc2nc(NC3C[C@@H]4CC[C@H]3C4)c3sccc3n2)c1)N1CCC(F)C1 (some centres undefined) | 7.01 | 5.33 | – | 143 mL/min/kg | – | – | 5.46 | –
11 | NC(=O)[C@@H]1[C@H](Nc2nc(Nc3ccnc(N4CCCC4)c3)nc3ccsc23)[C@H]2C=C[C@@H]1C2 | 6.69 | 6.70 | – | – | – | – | 5.59 | –
12 | NC(=O)[C@@H]1[C@H](Nc2nc(Nc3cc(F)cc(N4CCOCC4)c3)nc3ccsc23)[C@H]2C=C[C@@H]1C2 | 7.92 | 6.96 | 24% | 40 mL/min/kg | – | 6.64 | 5.64 | 30%
13 | NC(=O)c1ccccc1Nc1nc(Nc2cccc(C(=O)N3CCCC3)c2)nc2ccsc12 | 7.72 | 6.62 | – | 56 mL/min/kg | – | 5.82 | 5.19 | –
14 | CN1CCN(c2cc(Nc3nc(N[C@H]4[C@@H](C(N)=O)[C@@H]5C=C[C@H]4C5)c4sccc4n3)ccc2F)CC1 | 7.30 | 6.29 | – | – | – | – | 5.70 | –
15 | NC(=O)[C@@H]1[C@H](Nc2nc(Nc3ccc(OCCN4CCCC4)cc3)nc3ccsc23)[C@H]2C=C[C@@H]1C2 | 7.31 | 7.30 | – | – | – | 6.72 | 6.21 | –

Compounds with a higher pIC50 [1], results first:

Row | pIC50 [1] | pIC50 (THP-1) | bioavailability [2] | clearance [3] | concentration at 0.5 h [4] | pIC50 [5] | SMILES | pIC50 (PAD) | inhibition in vivo at 75 mg/kg (Mus musculus)
16 | 8.70 | 6.89 | 8% | 88 mL/min/kg | 410 ng/mL | 7.40 | NC(=O)[C@@H]1[C@H](Nc2nc(Nc3cccc(C(=O)N4CCCC4)c3)nc3ccn(C(F)F)c23)[C@H]2C=C[C@@H]1C2 | 5.82 | 0%
17 | 8.10 | 7.70 | – | – | – | – | Cc1c[nH]c2nc(Nc3cccc(C(=O)N4CCCC4)c3)nc(N[C@H]3[C@@H](C(N)=O)[C@@H]4C=C[C@H]3C4)c12 | 7.10 | –
18 | 8.70 | 7.22 | – | 141 mL/min/kg | – | 7.30 | NC(=O)[C@@H]1[C@H](Nc2nc(Nc3cc(F)cc(C(=O)N4CCCC4)c3)nc3ccsc23)[C@H]2C=C[C@@H]1C2 | 5.74 | –
19 | 8.40 | 6.54 | – | 124 mL/min/kg | – | 6.32 | NC(=O)[C@@H]1[C@H](Nc2nc(Nc3cccc(C(=O)N4CCCC4)c3)nc3[nH]ncc23)[C@H]2C=C[C@@H]1C2 | 5.24 | –
20 | 8.30 | 6.60 | – | 102 mL/min/kg | – | 6.31 | NC(=O)[C@@H]1[C@H](Nc2nc(Nc3cccc(C(=O)N4CCCC4)c3)nc3ccccc23)[C@H]2C=C[C@@H]1C2 | 5.12 | –
21 | 8.15 | 7.10 | < 1% | 242 mL/min/kg | – | 7.22 | CN1CCN(c2cc(Nc3nc(N[C@H]4[C@@H](C(N)=O)[C@@H]5C=C[C@H]4C5)c4sccc4n3)ccn2)CC1 | 5.77 | –
22 | 8.05 | 6.66 | 37% | 10 mL/min/kg | – | 6.59 | NC(=O)[C@@H]1[C@H](Nc2nc(Nc3cc(F)cc(N4CCOCC4)c3)nc3ccn(C(F)F)c23)[C@H]2C=C[C@@H]1C2 | 6.00 | 0%
23 | 8.39 | 6.30 | – | – | – | 5.89 | CC(C)n1ncc2ccc(Nc3nc(N[C@H]4[C@@H](C(N)=O)[C@@H]5C=C[C@H]4C5)c4c(ccn4C)n3)cc21 | 5.48 | –
24 | 8.22 | 6.82 | – | 113 mL/min/kg | – | 7.10 | NC(=O)[C@@H]1[C@H](Nc2nc(Nc3cccc(C(=O)N4CCOCC4)c3)nc3ccsc23)[C@H]2C=C[C@@H]1C2 | 5.31 | –
25 | 8.52 | 7.10 | 27% | 63 mL/min/kg | 65 ng/mL | 7.05 | Cc1n[nH]c2nc(Nc3cccc(C(=O)N4CCCC4)c3)nc(N[C@H]3[C@@H](C(N)=O)[C@@H]4C=C[C@H]3C4)c12 | 5.80 | 0%
26 | 8.22 | 5.42 | – | – | – | 5.85 | NC(=O)[C@@H]1[C@H](Nc2nc(Nc3cccc(C(=O)N4CCCC4)c3)nc3cc[nH]c23)[C@H]2C=C[C@@H]1C2 | < 4.00 | –
27 | 8.57 | 6.38 | – | – | – | 6.04 | CC(C)n1ccc2nc(Nc3ccc4cnn(C(C)C)c4c3)nc(N[C@H]3[C@@H](C(N)=O)[C@@H]4C=C[C@H]3C4)c21 | 5.59 | –
28 | 8.52 | 6.55 | – | 105 mL/min/kg | – | 5.14 | NC(=O)[C@@H]1[C@H](Nc2nc(Nc3cccc(C(=O)N4CCCC4)c3)nc3ncsc23)[C@H]2C=C[C@@H]1C2 | 5.40 | –
29 | 8.40 | 6.89 | 1% | 58 mL/min/kg | – | 6.59 | Cn1ccc2nc(Nc3cccc(C(=O)N4CCCC4)c3)nc(N[C@H]3[C@@H](C(N)=O)[C@@H]4C=C[C@H]3C4)c21 | 5.03 | –
30 | 8.30 | 7.43 | 7% | 47 mL/min/kg | – | – | Cc1n[nH]c2nc(Nc3cc(F)cc(N4CCOCC4)c3)nc(N[C@H]3[C@@H](C(N)=O)[C@@H]4C=C[C@H]3C4)c12 | 6.59 | –
31 | 8.52 | 6.57 | – | 92 mL/min/kg | – | 7.10 | NC(=O)[C@@H]1[C@H](Nc2nc(Nc3ccc(F)c(C(=O)N4CCCC4)c3)nc3ccsc23)[C@H]2C=C[C@@H]1C2 | 5.10 | –
32 | 8.00 | 7.10 | 12% | 132 mL/min/kg | – | 7.00 | NC(=O)[C@@H]1[C@H](Nc2nc(Nc3ccnc(N4CCOCC4)c3)nc3ccsc23)[C@H]2C=C[C@@H]1C2 | 5.57 | –
33 | 8.30 | 6.70 | – | 180 mL/min/kg | – | 6.70 | NC(=O)[C@@H]1[C@H](Nc2nc(Nc3cccc(C(=O)N4CCCC4)c3)nc3[nH]cnc23)[C@H]2C=C[C@@H]1C2 | 5.40 | –
34 | 8.40 | 6.05 | – | – | – | – | Cn1ncc2nc(Nc3cccc(C(=O)N4CCCC4)c3)nc(N[C@H]3[C@@H](C(N)=O)[C@@H]4C=C[C@H]3C4)c21 | 5.00 | –
35 | 8.00 | 7.15 | – | – | – | 7.40 | NC(=O)[C@@H]1[C@H](Nc2nc(Nc3ccc(C(=O)N4CCCC4)cc3)nc3ccsc23)[C@H]2C=C[C@@H]1C2 | 6.25 | –
36 | 8.52 | 6.66 | – | 101 mL/min/kg | – | 7.05 | NC(=O)[C@@H]1[C@H](Nc2nc(Nc3cccc(C(=O)N4CCCC4)c3)nc3ccoc23)[C@H]2C=C[C@@H]1C2 | 5.24 | –
